Source: patent US20180258069A1, “NEW CRYSTAL OF PIPERAZINE COMPOUND” (TAIHO PHARMACEUTICAL CO., LTD., priority 2015, published 2018)

What was measured:
[1] = target: hematopoietic prostaglandin D synthase (H-PGDS) (Homo sapiens, UniProt O60760); settings: disclosed in Patent Document 1; cited from earlier work
[2] = Dynamic vapor sorption (DVS) system analysis (moisture adsorption-desorption test); format: physicochemical; settings: 25° C., 5% to 95% RH
Experimental: Dynamic vapor sorption (DVS) system analysis was performed under the following conditions.
Device: VTI SGA-100, TA Instruments
Sample: about 10 mg Measurement temperature: 25° C. RH steps: 5-95-1% RH by 5% RH
Hygroscopic properties of crystals I and II obtained in the Examples were confirmed by dynamic vapor sorption (DVS) system analysis.
The adsorption and desorption data was collected at 5% RH intervals in a range of relative humidity (RH) of 5% to 95%. Before the measurement, the samples were heated under nitrogen purging to 25° C. at 1° C./min, followed by drying for up to 6 hours until the weight change in 5 minutes became less than 0.0100%. The measurement was performed with equilibration for up to 2 hours until the weight change in 5 minutes became less than 0.0100%.

[3] = Solid stability test (40° C., under light shielding), chemical purity by HPLC; format: physicochemical
Experimental: Using crystal I obtained in the Examples, the solid stability after storage at 40° C. under light shielding was measured.
Storage conditions: crystal I was stored at 40° C. after being placed in a light shielding bottle covered with a lid. Measurement points: after 1 month, after 3 months, after 6 months
The amount of analog in the sample solution was measured by HPLC analysis. Handling of the device, including data processing, was performed in accordance with the method and procedures specified for each device (device: 2130-2450, HITACHI).
Column: Mightysil RP-18 GP 150-4.6 (5 μm)
UV detection: 220 nm Column temperature: 40° C. Column flow rate: 1.0 mL/min Mobile phase: A: acetonitrile, B: 10 mM phos. buffer

[4] = Solid stability test (under exposure to light); format: physicochemical; settings: for Change of crystal form (powder X-ray crystal analysis): room temperature, after irradiation at 3500000 lux·h (2000 lux×1750 h)
Experimental: Using crystals I and II obtained in the Examples, the solid stability after storage under exposure to light was measured.
Storage conditions: crystal I was stored at room temperature under exposure to light after being placed in a transparent glass dish covered with a lid. Measurement point: after irradiation at 3500000 lux·h (irradiation at 2000 lux×1750 h)
Storage Container: Transparent Glass Dish
The powder X-ray diffraction upon the storage stability test was measured after an appropriate amount of the test substance was lightly pulverized as necessary using an agate mortar under the following test conditions.
Device: MiniFlex II, Rigaku Corporation
X-ray output power: 15 mA, 30 kV Scanning range: 3.0 to 40.0° Step size: 0.010° Scanning speed: […]. Divergence slit: 1.25° Scatter slit: open Receiving slit: open

Chain of hematopoietic prostaglandin D synthase (H-PGDS) (O60760 whole entry): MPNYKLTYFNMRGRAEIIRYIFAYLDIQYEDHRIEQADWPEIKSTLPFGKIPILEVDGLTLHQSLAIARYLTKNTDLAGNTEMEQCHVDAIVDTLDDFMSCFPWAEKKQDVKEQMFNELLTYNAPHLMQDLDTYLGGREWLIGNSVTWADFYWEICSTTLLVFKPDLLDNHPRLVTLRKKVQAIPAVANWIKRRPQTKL

Change in weight due to changes in humidity [2]	Powder X-ray crystal analysis before and after moisture adsorption and desorption [2]	Chemical Purity (%) ([3]; After 1 month at 40° C. under light shielding)	Chemical Purity (%) ([3]; After 3 months at 40° C. under light shielding)	Chemical Purity (%) ([3]; After 6 months at 40° C. under light shielding)	Chemical Purity (%) ([3]; Initial Value, before storage)	Change of chemical purity after storage ([3]; storage at 40° C. under light shielding)	Chemical purity after long-term storage under exposure to light [4]	Change of crystal form (powder X-ray crystal analysis) [4]	SMILES	H-PGDS inhibiting effect [1]
									Cn1cccc1C(=O)N1CCN(C(=O)Nc2ccc(N3CCC(C(=O)N4CCOCC4)CC3)cc2)CC1 [Compound (1), 4-((1-methylpyrrol-2-yl)-carbonyl)-N-(4-(4-morpholin-1-yl-carbonylpiperidin-1-yl)-phenyl)-1-piperazinecarboxamide]	inhibiting effect
no changes in weight	not changed	99.8%	99.6%	99.9%	99.8%	not changed	not decreased	not changed	Cn1cccc1C(=O)N1CCN(C(=O)Nc2ccc(N3CCC(C(=O)N4CCOCC4)CC3)cc2)CC1 [crystal I, monohydrate of 4-((1-methylpyrrol-2-yl)-carbonyl)-N-(4-(4-morpholin-1-yl-carbonylpiperidin-1-yl)-phenyl)-1-piperazinecarboxamide]	
great change in weight	not changed						not decreased	changed	Cn1cccc1C(=O)N1CCN(C(=O)Nc2ccc(N3CCC(C(=O)N4CCOCC4)CC3)cc2)CC1 [crystal II, 4-((1-methylpyrrol-2-yl)-carbonyl)-N-(4-(4-morpholin-1-yl-carbonylpiperidin-1-yl)-phenyl)-1-piperazinecarboxamide]	
